One assay deals with p110 delta (Homo sapiens (Human), UniProt O00329). The assay is described as follows: PI3K isoform inhibition assay, p110 delta (fluorescence polarization displacement). Format: biochemical. As for the experimental part: (§1) PI3K enzymatic activity was assayed by measuring the amount of product phosphatidylinositol 3,4,5-phosphate (PIP3) formed from substrate 4,5 phosphatidylinositol 4,5-phosphate (PIP2) using a fluorescence polarization displacement assay. The decrease in fluorescence polarization of a fluorescent PIP3 probe is measured as it is displaced from a PIP3-binding protein GRP-1 detector by PI3K-catalyzed product. […] The kinase reactions were initiated by the addition of 40 ng/mL p110α/p85α, 300 ng/mL p110β/p85α, 40 ng/mL p110γ, or 40 ng/mL p110δ/p85α (Upstate Group, Millipore; Dundee, UK), and 10 μM PIP2 (Echelon Biosciences) to the wells. […] After 60 minutes of incubation at room temperature to allow equilibration of labeled and unlabeled PIP3 binding, the parallel and perpendicular components of the fluorescence emissions from each sample were measured at an excitation wavelength of 530 nm and an emission wavelength of 590 nm using an Envision fluorescent plate reader with a rhodamine filter (PerkinElmer Life and Analytical Sciences; Wellesley, Mass.). The assay is capable of detecting 0.1-2.0 μM PIP3 product. The IC50 values were obtained by fitting the dose-dependent inhibition data to a 4-parameter equation using Assay Explorer software (MDL, San Ramon, Calif.).
Chain of p110 delta (O00329 whole entry, canonical isoform): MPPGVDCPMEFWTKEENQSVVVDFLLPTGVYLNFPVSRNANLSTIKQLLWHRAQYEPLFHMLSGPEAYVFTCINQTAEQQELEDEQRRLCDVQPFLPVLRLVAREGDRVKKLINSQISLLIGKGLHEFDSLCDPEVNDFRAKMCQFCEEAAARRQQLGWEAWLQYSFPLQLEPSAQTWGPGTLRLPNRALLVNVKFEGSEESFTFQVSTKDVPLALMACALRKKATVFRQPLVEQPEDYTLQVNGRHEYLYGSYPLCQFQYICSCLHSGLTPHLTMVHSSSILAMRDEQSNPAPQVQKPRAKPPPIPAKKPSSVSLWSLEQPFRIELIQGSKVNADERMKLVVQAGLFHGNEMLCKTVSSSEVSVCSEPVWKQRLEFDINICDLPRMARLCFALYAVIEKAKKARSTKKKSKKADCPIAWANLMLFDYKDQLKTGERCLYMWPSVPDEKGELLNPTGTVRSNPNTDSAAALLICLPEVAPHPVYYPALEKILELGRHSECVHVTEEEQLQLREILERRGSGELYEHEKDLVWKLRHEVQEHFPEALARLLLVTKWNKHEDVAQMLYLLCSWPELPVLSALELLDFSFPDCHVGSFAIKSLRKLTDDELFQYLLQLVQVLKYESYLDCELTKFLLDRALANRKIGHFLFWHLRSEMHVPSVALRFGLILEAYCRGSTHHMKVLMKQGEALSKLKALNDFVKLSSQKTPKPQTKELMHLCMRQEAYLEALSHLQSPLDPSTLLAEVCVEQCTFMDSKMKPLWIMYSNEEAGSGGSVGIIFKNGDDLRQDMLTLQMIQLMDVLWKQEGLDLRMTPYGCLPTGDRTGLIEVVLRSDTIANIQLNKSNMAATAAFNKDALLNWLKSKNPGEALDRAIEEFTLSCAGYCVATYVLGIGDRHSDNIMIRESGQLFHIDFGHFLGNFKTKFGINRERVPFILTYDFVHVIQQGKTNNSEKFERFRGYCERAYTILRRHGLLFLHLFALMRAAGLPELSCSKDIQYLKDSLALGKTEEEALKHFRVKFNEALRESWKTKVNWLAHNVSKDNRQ
Chain of p110 delta (P27986 whole entry partner, canonical isoform): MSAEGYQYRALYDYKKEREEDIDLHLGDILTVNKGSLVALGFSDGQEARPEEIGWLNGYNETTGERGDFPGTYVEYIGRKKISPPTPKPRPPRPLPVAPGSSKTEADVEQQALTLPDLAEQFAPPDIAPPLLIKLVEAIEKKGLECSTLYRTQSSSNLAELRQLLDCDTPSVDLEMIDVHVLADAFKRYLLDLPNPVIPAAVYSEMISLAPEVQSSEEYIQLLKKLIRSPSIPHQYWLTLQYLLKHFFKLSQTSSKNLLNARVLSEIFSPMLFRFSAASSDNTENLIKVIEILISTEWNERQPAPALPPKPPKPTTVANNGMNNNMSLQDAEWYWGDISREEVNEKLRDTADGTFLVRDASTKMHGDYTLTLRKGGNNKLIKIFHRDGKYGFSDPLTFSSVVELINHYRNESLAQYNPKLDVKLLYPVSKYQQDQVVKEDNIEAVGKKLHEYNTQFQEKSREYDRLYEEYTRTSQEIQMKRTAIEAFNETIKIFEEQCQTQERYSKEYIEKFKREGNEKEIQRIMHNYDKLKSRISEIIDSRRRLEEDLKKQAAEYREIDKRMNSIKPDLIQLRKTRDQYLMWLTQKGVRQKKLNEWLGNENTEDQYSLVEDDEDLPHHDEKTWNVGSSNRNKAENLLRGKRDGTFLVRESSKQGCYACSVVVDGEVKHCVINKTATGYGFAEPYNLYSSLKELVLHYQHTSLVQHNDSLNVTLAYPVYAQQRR
The Formula I compound was serially diluted in 100% DMSO. The kinase reaction was incubated for 1 h at room temperature, and the reaction was terminated by the addition of PBS. IC50 values were subsequently determined using sigmoidal dose-response curve fit (variable slope).
(§2) The four Class I PI 3-kinases are cloned into baculovirus vectors as follows: […]
(In general: Fluorescence polarisation rises when a labelled molecule tumbles more slowly, as on binding a larger partner.)

Another assay concerns the target p110 alpha (Homo sapiens (Human), UniProt P42336). In words: PI3K isoform inhibition assay, p110 alpha (for alpha/delta selectivity). The conditions noted are these: ratio of biochemical IC50 values. As for the experimental part: as §1
The same protocol may be used to establish IC50 values for p110α (alpha) PI3K binding.
as §2

Each structure is given as a SMILES string.

Chain of p110 alpha (P42336 whole entry, canonical isoform): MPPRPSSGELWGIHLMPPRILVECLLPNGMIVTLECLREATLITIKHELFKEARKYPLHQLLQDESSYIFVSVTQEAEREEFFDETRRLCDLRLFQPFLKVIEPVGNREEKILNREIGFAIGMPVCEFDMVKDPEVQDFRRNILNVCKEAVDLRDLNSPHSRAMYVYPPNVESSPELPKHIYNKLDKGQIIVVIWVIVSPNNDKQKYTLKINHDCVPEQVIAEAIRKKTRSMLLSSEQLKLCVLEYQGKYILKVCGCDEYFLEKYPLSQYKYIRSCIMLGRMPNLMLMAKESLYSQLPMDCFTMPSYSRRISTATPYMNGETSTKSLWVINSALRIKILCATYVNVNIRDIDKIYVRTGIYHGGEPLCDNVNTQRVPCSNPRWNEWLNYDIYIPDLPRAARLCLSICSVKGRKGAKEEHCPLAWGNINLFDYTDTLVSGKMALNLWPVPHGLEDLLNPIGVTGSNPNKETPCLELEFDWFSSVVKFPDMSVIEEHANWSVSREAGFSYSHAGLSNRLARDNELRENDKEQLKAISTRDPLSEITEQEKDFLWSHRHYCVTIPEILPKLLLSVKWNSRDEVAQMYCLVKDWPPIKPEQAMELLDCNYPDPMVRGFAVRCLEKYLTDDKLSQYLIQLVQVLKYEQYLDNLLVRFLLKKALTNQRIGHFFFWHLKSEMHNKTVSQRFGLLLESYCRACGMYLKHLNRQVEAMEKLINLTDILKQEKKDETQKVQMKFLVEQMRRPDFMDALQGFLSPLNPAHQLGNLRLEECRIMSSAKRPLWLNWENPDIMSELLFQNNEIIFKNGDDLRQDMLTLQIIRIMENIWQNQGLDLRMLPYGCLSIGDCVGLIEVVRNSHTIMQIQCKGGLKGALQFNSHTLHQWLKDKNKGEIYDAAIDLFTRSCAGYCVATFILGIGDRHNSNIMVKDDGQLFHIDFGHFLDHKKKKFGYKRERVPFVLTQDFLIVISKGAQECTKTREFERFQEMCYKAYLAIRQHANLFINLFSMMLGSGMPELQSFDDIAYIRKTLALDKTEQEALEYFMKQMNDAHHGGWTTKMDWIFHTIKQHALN
Chain of p110 alpha (P27986 whole entry partner, canonical isoform): as the sequence (P27986 whole entry partner, canonical isoform) above

The IC50 is the concentration that gives 50% inhibition. Higher therefore signals a need for much substance. The compound `Cc1nc(-c2cn3c(n2)-c2ccc(-c4ccnn4C4CC(C)N(C)C(C)C4)cc2OCC3)n(C(C)C)n1` (stereo not drawn) [Example 282, 2-(2-isopropyl-5-methyl-1,2,4-triazol-3-yl)-9-[2-(1,2,6-trimethyl-4-piperidyl)pyrazol-3-yl]-5,6-dihydroimidazo[1,2-d][1,4]benzoxazepine] yielded an IC50 at p110 delta of 1.3 nM. For the same compound, on p110 alpha, the “IC50 p110 alpha/IC50 p110 delta” value was found to be 76.9.

For `Cc1nc(-c2cn3c(n2)-c2ccc(OC4(CC5CC5)CN(C(C)C)C4)cc2OCC3)n(C(C)C)n1` [Example 283, 9-[3-(cyclopropylmethyl)-1-isopropyl-azetidin-3-yl]oxy-2-(2-isopropyl-5-methyl-1,2,4-triazol-3-yl)-5,6-dihydroimidazo[1,2-d][1,4]benzoxazepine], the IC50 at p110 delta came out at 0.936 nM. Further, the “IC50 p110 alpha/IC50 p110 delta” value on p110 alpha amounted to 75.5.

Regarding `Cc1nc(-c2cn3c(n2)-c2ccc(OC4(CC5CC5)CNC4)cc2OCC3)n(C(C)C)n1` [Example 284, 9-[3-(cyclopropylmethyl)azetidin-3-yl]oxy-2-(2-isopropyl-5-methyl-1,2,4-triazol-3-yl)-5,6-dihydroimidazo[1,2-d][1,4]benzoxazepine], at p110 delta, the IC50 was found to be 2.9 nM. The “IC50 p110 alpha/IC50 p110 delta” value on p110 alpha is 23.9.

`Cc1nc(-c2cn3c(n2)-c2ccc(-c4ccnn4C4CCCN(C5(C)COC5)C4)cc2OCC3)n(C(C)C)n1` (stereo not drawn) [Example 285, 2-(2-isopropyl-5-methyl-1,2,4-triazol-3-yl)-9-[2-[1-(3-methyloxetan-3-yl)-3-piperidyl]pyrazol-3-yl]-5,6-dihydroimidazo[1,2-d][1,4]benzoxazepine]: the IC50 on p110 delta is 1.39 nM. Besides, the “IC50 p110 alpha/IC50 p110 delta” value at p110 alpha is on record as 31.9.

As for `Cc1nc(-c2cn3c(n2)-c2ccc(-c4cnn(C)c4C4CCCCN4CC(C)(C)O)cc2OCC3)n(C(C)C)n1` (stereo not drawn) [Example 289, 1-[2-[4-[2-(2-isopropyl-5-methyl-1,2,4-triazol-3-yl)-5,6-dihydroimidazo[1,2-d][1,4]benzoxazepin-9-yl]-2-methyl-pyrazol-3-yl]-1-piperidyl]-2-methyl-propan-2-ol], the IC50 at p110 delta turned out to be 0.852 nM. At p110 alpha, the “IC50 p110 alpha/IC50 p110 delta” value stood at 13.1.

`CC(C)n1nc(CO)nc1-c1cn2c(n1)-c1ccc(-c3ccnn3C3CCN(C)CC3)cc1OCC2` [Example 290, [1-isopropyl-5-[9-[2-(1-methyl-4-piperidyl)pyrazol-3-yl]-5,6-dihydroimidazo[1,2-d][1,4]benzoxazepin-2-yl]-1,2,4-triazol-3-yl]methanol] came in with an IC50 on p110 delta of 2.42 nM. Moreover, the “IC50 p110 alpha/IC50 p110 delta” value at p110 alpha is listed as 15.9.

`Cc1nc(-c2cn3c(n2)-c2ccc(N4CCC4C4CCN(C(C)C)CC4)cc2OCC3)n(C(C)C)n1` (stereo not drawn) [Example 293, 2-(2-isopropyl-5-methyl-1,2,4-triazol-3-yl)-9-[2-(1-isopropyl-4-piperidyl)azetidin-1-yl]-5,6-dihydroimidazo[1,2-d][1,4]benzoxazepine]: on p110 delta, the IC50 came out at 1.47 nM. The “IC50 p110 alpha/IC50 p110 delta” value at p110 alpha amounted to 10.3.

In turn, `Cc1nc(-c2cn3c(n2)-c2cc([C@@H](C)N4CCN(C(C)(C)C)CC4)c(F)cc2OCC3)n(C(C)C)n1` [Example 294, (R)-10-(1-(4-tert-butylpiperazin-1-yl)ethyl)-9-fluoro-2-(1-isopropyl-3-methyl-1H-1,2,4-triazol-5-yl)-5,6-dihydrobenzo[f]imidazo[1,2-d][1,4]oxazepine] returned an IC50 on p110 delta of 0.777 nM. Besides, at p110 alpha, the “IC50 p110 alpha/IC50 p110 delta” value came to 479.

As for `Cc1nc(-c2cn3c(n2)-c2ccc(-c4ccnn4C4CCN(C(C)C)CC4)cc2OCC3)n(C(C)C)n1` [Example 296, 2-(2-isopropyl-5-methyl-1,2,4-triazol-3-yl)-9-[2-(1-isopropyl-4-piperidyl)pyrazol-3-yl]-5,6-dihydroimidazo[1,2-d][1,4]benzoxazepine], at p110 delta, the IC50 is 1.06 nM. For the same compound, at p110 alpha, the “IC50 p110 alpha/IC50 p110 delta” value worked out at 31.5.

In the case of `Cc1nc(-c2cn3c(n2)-c2cc([C@H](C)N4CCN(C(C)(C)C)CC4)c(F)cc2OCC3)n(C(C)C)n1` [Example 297, (S)-10-(1-(4-tert-butylpiperazin-1-yl)ethyl)-9-fluoro-2-(1-isopropyl-3-methyl-1H-1,2,4-triazol-5-yl)-5,6-dihydrobenzo[f]imidazo[1,2-d][1,4]oxazepine], at p110 delta, the IC50 came to 2.42 nM. In addition, at p110 alpha, the “IC50 p110 alpha/IC50 p110 delta” value is given as 102.

Compound `CC(C)n1nc(N)nc1-c1cn2c(n1)-c1ccc(-c3ccnn3C3CCN(C)CC3)cc1OCC2` [Example 298, 1-isopropyl-5-[9-[2-(1-methyl-4-piperidyl)pyrazol-3-yl]-5,6-dihydroimidazo[1,2-d][1,4]benzoxazepin-2-yl]-1,2,4-triazol-3-amine] came in with an IC50 at p110 delta of 0.705 nM. The “IC50 p110 alpha/IC50 p110 delta” value on p110 alpha is recorded as 54.6.

As to `Cc1nc(-c2cn3c(n2)-c2ccc(OC4(CC(C)C)CN(C(C)C)C4)cc2OCC3)n(C(C)C)n1` [Example 301, 9-(3-isobutyl-1-isopropyl-azetidin-3-yl)oxy-2-(2-isopropyl-5-methyl-1,2,4-triazol-3-yl)-5,6-dihydroimidazo[1,2-d][1,4]benzoxazepine], the IC50 at p110 delta amounted to 8.67 nM. In addition, on p110 alpha, the “IC50 p110 alpha/IC50 p110 delta” value is 32.1.

`Cc1nc(-c2cn3c(n2)-c2cc([C@H](C)N4CCN(C(C)(C)C)CC4)ncc2OCC3)n(C(C)C)n1` [Example 303, (S)-10-(1-(4-tert-butylpiperazin-1-yl)ethyl)-2-(1-isopropyl-3-methyl-1H-1,2,4-triazol-5-yl)-5,6-dihydroimidazo[1,2-d]pyrido[4,3-f][1,4]oxazepine]: the IC50 on p110 delta is 1.92 nM. Further, at p110 alpha, the “IC50 p110 alpha/IC50 p110 delta” value stood at 113.

In turn, `CCN1CCC(C2CCCN2c2ccc3c(c2)OCCn2cc(-c4nc(C)nn4C(C)C)nc2-3)CC1` (stereo not drawn) [Example 304, 9-[2-(1-ethyl-4-piperidyl)pyrrolidin-1-yl]-2-(2-isopropyl-5-methyl-1,2,4-triazol-3-yl)-5,6-dihydroimidazo[1,2-d][1,4]benzoxazepine] registered an IC50 at p110 delta of 0.52 nM. Besides, the “IC50 p110 alpha/IC50 p110 delta” value on p110 alpha is 36.4.

`Cc1nc(-c2cn3c(n2)-c2cc([C@@H](C)N4CCN(C(C)(C)C)CC4)ncc2OCC3)n(C(C)C)n1` [Example 305, (R)-10-(1-(4-tert-butylpiperazin-1-yl)ethyl)-2-(1-isopropyl-3-methyl-1H-1,2,4-triazol-5-yl)-5,6-dihydroimidazo[1,2-d]pyrido[4,3-f][1,4]oxazepine] showed an IC50 at p110 delta of 2.81 nM. For the same compound, the “IC50 p110 alpha/IC50 p110 delta” value on p110 alpha was determined as 28.6.

For `Cc1nc(-c2cn3c(n2)-c2ccc(N4CCCC4C4CCN(S(C)(=O)=O)CC4)cc2OCC3)n(C(C)C)n1` (stereo not drawn) [Example 306, 2-(2-isopropyl-5-methyl-1,2,4-triazol-3-yl)-9-[2-(1-methylsulfonyl-4-piperidyl)pyrrolidin-1-yl]-5,6-dihydroimidazo[1,2-d][1,4]benzoxazepine], the IC50 on p110 delta was 1.18 nM. Moreover, the “IC50 p110 alpha/IC50 p110 delta” value at p110 alpha is 12.4.

On p110 delta, `Cc1nc(-c2cn3c(n2)-c2ccc(N4CCCC4C4CCCN(C)C4)cc2OCC3)n(C(C)C)n1` (stereo not drawn) [Example 311, 2-(2-isopropyl-5-methyl-1,2,4-triazol-3-yl)-9-[2-(1-methyl-3-piperidyl)pyrrolidin-1-yl]-5,6-dihydroimidazo[1,2-d][1,4]benzoxazepine] yielded an IC50 of 1.35 nM. For the same compound, the “IC50 p110 alpha/IC50 p110 delta” value on p110 alpha is on record as 46.8.

For the compound `Cc1nc(-c2cn3c(n2)-c2ccc(N4CCCC45CCCN(C)C5)cc2OCC3)n(C(C)C)n1` (stereo not drawn) [Example 314, 2-(2-isopropyl-5-methyl-1,2,4-triazol-3-yl)-9-(7-methyl-1,7-diazaspiro[4.5]decan-1-yl)-5,6-dihydroimidazo[1,2-d][1,4]benzoxazepine], the IC50 on p110 delta was 0.335 nM. For the same compound, the “IC50 p110 alpha/IC50 p110 delta” value on p110 alpha stood at 50.1.

With `Cc1nc(-c2cn3c(n2)-c2cc(-c4ccnn4[C@@H]4CCCN(C(C)C)C4)c(F)cc2OCC3)n(C(C)C)n1` [Example 315, (R)-9-fluoro-2-(1-isopropyl-3-methyl-1H-1,2,4-triazol-5-yl)-10-(1-(1-isopropylpiperidin-3-yl)-1H-pyrazol-5-yl)-5,6-dihydrobenzo[f]imidazo[1,2-d][1,4]oxazepine], the IC50 at p110 delta is 0.44 nM. Further, on p110 alpha, the “IC50 p110 alpha/IC50 p110 delta” value is given as 25.8.

As to `Cc1nc(-c2cn3c(n2)-c2cc(-c4ccnn4[C@H]4CCCN(C(C)C)C4)c(F)cc2OCC3)n(C(C)C)n1` [Example 316, (S)-9-fluoro-2-(1-isopropyl-3-methyl-1H-1,2,4-triazol-5-yl)-10-(1-(1-isopropylpiperidin-3-yl)-1H-pyrazol-5-yl)-5,6-dihydrobenzo[f]imidazo[1,2-d][1,4]oxazepine], on p110 delta, the IC50 was < 0.035 nM. In addition, at p110 alpha, the “IC50 p110 alpha/IC50 p110 delta” value is recorded as 214.

As for `Cc1nc(-c2cn3c(n2)-c2ccc(-c4cnc(C)n4C4CCCN(C(C)C)C4)cc2OCC3)n(C(C)C)n1` (stereo not drawn) [Example 317, 2-(2-isopropyl-5-methyl-1,2,4-triazol-3-yl)-9-[3-(1-isopropyl-3-piperidyl)-2-methyl-imidazol-4-yl]-5,6-dihydroimidazo[1,2-d][1,4]benzoxazepine], at p110 delta, the IC50 was 6.51 nM. Further, at p110 alpha, the “IC50 p110 alpha/IC50 p110 delta” value was determined as 22.3.

These data come from US9090628B2, “Benzoxazepin compounds selective for PI3K P110 delta and methods of use” (GENENTECH, INC., priority 2011, dated 2015).
